The logP is the decadic logarithm of the partition coefficient of the neutral form, usually between octanol and water. A low value points to a more hydrophilic compound.

Series [1] in a line: Partition coefficient (logP). Type of series: physicochemical. As to conditions: octanol/water.
Series [2] deals with Mus musculus. The experiment in a line: In vivo antitumor activity was determined after administration of compound (1.0 umol/kg) in mice bearing RIF tumors exposed to laser light (135 J/cm**2) on day 1-2. Type of series: functional.
For series [3], the system named is Mus musculus. The experiment in a line: In vivo antitumor activity was determined after administration of compound (1.0 umol/kg) in mice bearing RIF tumors exposed to laser light (135 J/cm**2) on day 14. In kind it is functional.
Series [4] relates to Mus musculus. The experiment in a line: In vivo antitumor activity was determined after administration of compound (1.0 umol/kg) in mice bearing RIF tumors exposed to laser light (135 J/cm**2) on day 21. Type of series: functional.
Series [5] has as its system Mus musculus. The experiment in a line: In vivo antitumor activity was determined after administration of compound (1.0 umol/kg) in mice bearing RIF tumors exposed to laser light (135 J/cm**2) on day 30. In kind it is functional.
The test system of series [6] is Mus musculus. The experiment in a line: In vivo antitumor activity was determined after administration of compound (1.0 umol/kg) in mice bearing RIF tumors exposed to laser light (135 J/cm**2) on day 7. In kind it is functional.
The test system of series [7] is Mus musculus. The experiment in a line: In vivo antitumor activity was determined after administration of compound (1.0 umol/kg) in mice bearing RIF tumors exposed to laser light (135 J/cm**2) on day 1-2; No rseponse. In kind it is functional, organism-based.
For series [8], the system named is Mus musculus. The experiment in a line: In vivo antitumor activity was determined after administration of compound (1.0 umol/kg) in mice bearing RIF tumors exposed to laser light (135 J/cm**2) on day 14; No rseponse. In kind it is functional, organism-based.
Series [9] has as its system Mus musculus. The experiment in a line: In vivo antitumor activity was determined after administration of compound (1.0 umol/kg) in mice bearing RIF tumors exposed to laser light (135 J/cm**2) on day 21; No rseponse. In kind it is functional, organism-based.
Series [10] concerns Mus musculus. The experiment in a line: In vivo antitumor activity was determined after administration of compound (1.0 umol/kg) in mice bearing RIF tumors exposed to laser light (135 J/cm**2) on day 30; No rseponse. Type of series: functional, organism-based.
Series [11] deals with Mus musculus. The experiment in a line: In vivo antitumor activity was determined after administration of compound (1.0 umol/kg) in mice bearing RIF tumors exposed to laser light (135 J/cm**2) on day 7; No rseponse. In kind it is functional, organism-based.
Series [12] concerns Mus musculus. The experiment in a line: In vivo antitumor activity was determined after administration of compound (1.0 umol/kg) in mice bearing RIF tumors exposed to laser light (135 J/cm**2) on day 7; Tumor regrowth. In kind it is functional, organism-based.

The compound `CCCCCCCOC(C)C1=C(C)c2cc3nc(c4c5[nH]c(cc6[nH]c(cc1n2)c(C)c6CC)c(C)c5C(=O)N(CCCCCC)C4=O)[C@@H](CCC(=O)OC)[C@@H]3C` (some centres not stated) yielded a logP in [1] of 10.83. For the same compound, the Tumor cure in the series on Mus musculus [2], in the series on Mus musculus [3], in the series on Mus musculus [4], in the series with Mus musculus [5] and in the series with Mus musculus [6] was 100% each time.
`CCCCCCCOC(C)c1c(C)c2cc3[nH]c(cc4nc(c5c6nc(cc1[nH]2)C(C)=C6C(=O)N(CCCCCC)C5=O)[C@@H](CCC(=O)OC)[C@@H]4C)c(C)c3CC` (some centres not stated) registered a log partition coefficient (logP) in [1] of 10.83. Besides, the Tumor cure entry with Mus musculus [7], with Mus musculus [8], in the series on Mus musculus [9], in the series with Mus musculus [10] and with Mus musculus [11] was “No response” throughout.
For the compound `CCCCCCCCOCC1=C(C)c2cc3nc(c4c5[nH]c(cc6[nH]c(cc1n2)c(C)c6CC)c(C)c5C(=O)N(CCCCCC)C4=O)[C@@H](CCC(=O)OC)[C@@H]3C`, the logP in series [1] is 10.8. Also, the Tumor cure result with Mus musculus [7], in the series on Mus musculus [8], in the series on Mus musculus [9], with Mus musculus [10] and in the series on Mus musculus [11] was “No response” in each case.
The compound `CCCCCCCCCCN1C(=O)c2c3nc(cc4nc(cc5[nH]c(cc6[nH]c2c(c6C)C1=O)c(CC)c5C)C(CC)=C4C)[C@@H](C)[C@@H]3CCC(=O)OC` yielded a log partition coefficient (logP) in [1] of 10.62. For the same compound, the Tumor cure with Mus musculus [2] is on record as 100%; with Mus musculus [12], “Tumour regrowth”.
Regarding `CCCCCCCOCc1c2nc(c3c4nc(cc5[nH]c(cc6[nH]c1c(C)c6CC)c(C)c5CC)C(C)=C4C(=O)N(CCCCCC)C3=O)[C@@H](CCC(=O)OC)[C@@H]2C`, the logP in [1] came out at 10.78. Further, the Tumor cure in the series with Mus musculus [2], in the series on Mus musculus [3], in the series on Mus musculus [4], in the series with Mus musculus [5] and in the series with Mus musculus [6] was 50% throughout.

The record behind these values is ChEMBL document CHEMBL1133217, “Purpurinimides as photosensitizers: effect of the presence and position of the substituents in the in vivo photodynamic efficacy” (Bioorg Med Chem Lett, 2000).
